In brackets after ≈: the same amount, converted by molar mass. Several values for one entry are separate records, joined by “and”; a condition that tells them apart may be missing. Equal entries are not always repeated.
Experiments:
EHS sarcoma = assay: Inhibition of in vivo growth of EHS tumor in C57BL/6 mice
Experimental: Animals bearing Engelbreth-Holm-Swarm (EHS) tumors were sacrificed and the tumor tissue was excised and minced under aseptic conditions. The EHS tumor is characterized by a large amount of basement membrane components. A suspension of the tumor tissue in 0.2 ml of PBS was injected subcutaneously in the dorsal posterior region of C57BL/6 male mice. The mice were divided into two groups of 10 mice each. The animals of the experimental group were fed with a diet containing 5 mg/kg Halofuginone for 3 days prior to tumor injection and during 3 weeks after. The tumor size was estimated by measurement of tumor length in two directions, using the formula V=LW^2/2. On the final day of the experiment, i.e., 20 days after tumor injector, the mice were weighed the tumors were exceed and a sample of the tumor tissue was fixed and processed for histological examination.

[1] = test system: bovine aortic endothelial cells; assay: 3H-thymidine incorporation into vascular endothelial cells; type: cell-based; conditions: 48 hours
Experimental: Cultures of vascular endothelial cells were established from bovine aorta as previously described [D. Gospodarowicz, et al., Proc. Natl. Acad. Sci. U.S.A., Vol. 73, p. 4120 (1979)]. Bovine aortic endothelial cells were plated (4×10^4 cells/16 mm well) in DMEM (1 g glucose/liter) supplemental with 10% calf serum, 50 U/ml penicillin, and 50 μ/ml streptomycin at 37° C. in 10% CO2 humidified incubators. Four days after plating, the subconfluent cells were exposed to increasing concentrations of Halofuginone (100-500 ng/ml), in the absence of presence of 1 ng/ml bFGF. ^3H-thymidine (1 μCi/well) was then added for an additional 48 hours, and DNA synthesis was assayed by measuring the radioactivity incorporated into trichloroacetic acid insoluble material [M. Benezra, et al., Cancer Res., Vol 52, pp. 5656-5662 (1992); I. Vlodavsky, et al., Proc. Natl. Acad. Sci. U.S.A. Vol. 84, pp. 2292-2296 (1987)].

rat aortic rings = assay: Microvessel formation from rat aortic rings embedded in type I collagen gel; type: cell-based
Experimental: Thoracic aortas were obtained from 1- to 2-month-old SD (Sprague-Dawley) rats sacrificed by decapitation [R. F. Nicosia and A. Ottinetti, Lab. Invest, Vol. 63, pp. 115-122 (1991)]. The aortas were immediately transferred to a Petri dish with PBS. The fibro-adipose tissue around the aorta was carefully removed under a dissecting microscope, and 1 mm-long aortic rings were sectioned and extensively rinsed in PBS. Type I collagen solution (0.2 ml) was added to each 16-mm well and gellation was allowed for 15 min at 37° C. Each aorta ring was transferred and positioned to the center of the gel and another 0.4 ml of the collagen solution was carefully poured on top of the ring. […]

[2] = test system: bovine corneal endothelial cells; assay: cells; type: cell-based
Experimental: Cultures of bovine corneal endothelial cells were established from steer eyes and maintained as previously described [D. Gospodarowicz, et al., Exp. Eye Res., No. 25, pp. 75-89 (1997)]. Cells were cultured at 37° C. in 10% CO2 humidified incubators and the experiments were performed with early (3-8) cell passsages.
For preparation of the sulfate-labelled ECM (extra-cellular matrix), corneal endothelial cells were seeded into 4-well plates at a confluent density forming, within 4-6 h, a contact inhibited cell monolayer composed of closely apposed, and growth arrested cells. Under these conditions, the cells remained viable and retained their normal monolayer configuration and morphological appearance up to a concentration of 2 μg/ml halofuginone. Na2[^35S]O4 (540-590 mCi/mmol) was added (40 μCi/ml) one and five days after seeding and the cultures were incubated without medium change. At various intervals after seeding, the subendothelial ECM was exposed by dissolving (5 min., room temperature) the cell layer with PBS containing 0.5% Triton X-100 and 20 mM NH4OH, followed by four washes in PBS [I Viodavsky, et al., Cancer Res., Vol. 43, pp. 2704-2711 (1983), I. Vlodavsky, et al., Proc. Natl. Acad. Sci. USA, Vol. 84 pp. 2292-2296 (1987)]. To determine the total amount of sulfate labeled material, the BCM was digested with trypsin (25 μg/ml, 24 h, 37° C.) and the solubilized material counted in a β-counter.

[3] = test system: human leiomyosarcoma tumor cells; assay: Proliferation ([3H]thymidine incorporation) of human leiomyosarcoma tumor cells; type: cell-based
Experimental: Samples of human leiomyosarcoma tumors were obtained from women undergoing surgical hysterectomy, as described [R. S. Mangrulker, et al., ibid.]. Minced tissue was placed into 20 ml cold homogenization buffer: 1 M NaCl, 10 mM Tris (pH 7.4), 1 mM EDTA, 1 mM benzamidine, 0.1% CHAPS, 0.01% Aprotinin (Sigma), 10 μg/ml leupeptin, 1 mM AEBSF [R. S. Mangrulker, et al., ibid]. Samples were homogenized for 2 min and centrifuged at 12000 a g for 60 min at 4° C. The supernatants were diluted 1:5 with 10 mM Tris (pH 7.4) to a final volume of 100 ml and filtered with 0.45 μm nylon fibers. Cells were plated and maintained in DMEM plus 10% calf serum. The cells remained viable over a number of passages but were used at passages 2 or 3. For proliferation assays, cells were plated in 96-well plates at 10,000 cells/well an 200 μl medium (DMEM with 4.5 G/L glucose, 10% calf serum. 1% glutamine, 1% penicillin/streptomycin) and incubated 2 days until confluent. […] The medium was changed to DMEM with 0.5%calf serum, 1 μM insulin and 5 μM transferrin. After 24 h, the samples (5-10 μl) were added and after an additional 24 h, [^3H]thymidine (1 μCi/well) was added to each well. After 36-48 h incubation, the cells were fixed with methanol, and the DNA was precipitated with 5% trichloroacetic acid. The cells were lysed with 150 μl/well of 0.3 N NaOH, transferred to scintillation vials, and counted on a β-counter. […] The effect of Halofuginone on proliferation of HB-EGF (Heparin-Binding Epidermal Growth Factor) and serum-stimulated leiomyosarcoma cells was then examined. The leiomyosarcoma tumor cells were growth-arrested by 48 h incubation in medium containing 0.5% FCS. The cells were then exposed (24 h) to either 10% FCS or 10 ng/ml HB-EGF in the absence or presence of 10 ng/ml Halofuginone. [^3H]thymidine was then added and DNA synthesis measured 36 h later.

With O=C(CC1NCCCC1O)Cn1cnc2cc(Br)c(Cl)cc2c1=O (stereo not drawn) [Halofuginone] the “tumor volume (group mean)” value (EHS sarcoma; C57BL/6 mice fed Halofuginone 5 mg/kg diet) was 1.72±1.85 cm^3, the “reduction of tumor size compared to control mice” value (EHS sarcoma; C57BL/6 mice, diet 5 mg/kg Halofuginone) was “about 75%” and the weight of mice (EHS sarcoma; Halofuginone-fed C57BL/6 mice, nearly normal weight) was 19.7 ± 0.47 g. The “EHS Tumor Size” value (EHS sarcoma; individual mice, diet 5 mg/kg Halofuginone, 20 days after tumor injection) was 0 cm^3 (2×) and 2.2 cm^3 and 0.04 cm^3 and 6.5 cm^3 and 3.0 cm^3 and 1.3 cm^3 (2×) and 1.2 cm^3 and 1.7 cm^3, the IC50 ([1]; Bos taurus, Endothelial cell, absence of bFGF (FIG. 2A), read-out: concentration giving 50% inhibition of 3H-thymidine incorporation) was 0.1 µg/mL (≈ 0.241 µM) and the “concentration giving 50% inhibition of 3H-thymidine incorporation” value ([1]; presence of 1 ng/ml bFGF (FIG. 2B)) was 100 ng/mL. For the same compound, the “inhibition of microvessel formation” value (rat aortic rings; 100 ng/ml Halofuginone) was “almost complete inhibition”, the “inhibition of microvessel formation” value (rat aortic rings; 250 ng/ml Halofuginone) was “Complete inhibition” and the “reversibility of inhibition of microvessel formation” value (rat aortic rings; removal of the drug on day 2) was “reversed upon removal of the drug on day 2”. The “inhibition of sulfate incorporation into ECM” value ([2]; 1 μg/ml Halofuginone) was “almost complete inhibition”, the IC50 ([2]; Bos taurus, Endothelial cell, read-out: concentration giving 50% inhibition of sulfate incorporation into ECM) was 0.2 µg/mL (≈ 0.482 µM) and the “concentration up to which cells remained viable with normal monolayer configuration and morphology” value ([2]; bovine) was ≤ 2 μg/ml. For the same compound, the “inhibition of cell proliferation induced by HB-EGF” value ([3]; 10 ng/ml HB-EGF, 10 ng/ml Halofuginone, growth-arrested cells) was “complete inhibition”, the “inhibition of cell proliferation induced by serum” value ([3]; 10% FCS, 10 ng/ml Halofuginone, growth-arrested cells) was “complete inhibition” and the inhibition at 0.0025 µg/mL ([3]; Homo sapiens, 2.5 ng/ml Halofuginone (FIG. 11A)) was 60 to 70%.

Source: patent US6420371B1, “Quinazolinone-containing pharmaceutical compositions for prevention of neovascularization and for treating malignancies” (Madasit Medical Research Services & Development Co., Ltd., priority 1997, dated 2002)
